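These data come from cells grown in 96-well plates and exposed to compound for 48 hours at five concentrations. GI50: concentration for 50% inhibition of growth. TGI: concentration producing complete growth inhibition.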
What was measured:
Assay in all cases: growth of human tumour cells (NCI), 48 h
ACHN renal = tested on: ACHN renal
OVCAR-8 ovarian = tested on: OVCAR-8 ovarian
A549 NSCLC = tested on: A549 NSCLC
SF-539 CNS = tested on: SF-539 CNS
UACC-257 melanoma = tested on: UACC-257 melanoma
HOP-92 NSCLC = tested on: HOP-92 NSCLC
HOP-18 NSCLC = tested on: HOP-18 NSCLC
DMS 273 small cell lung = tested on: DMS 273 small cell lung
COLO 205 colon = tested on: COLO 205 colon
DMS 114 small cell lung = tested on: DMS 114 small cell lung

SMILES	TGI (ACHN renal) [µM]	TGI (OVCAR-8 ovarian) [µM]	TGI (A549 NSCLC) [µM]	TGI (SF-539 CNS) [µM]	TGI (UACC-257 melanoma) [µM]	TGI (HOP-92 NSCLC) [µM]	TGI (HOP-18 NSCLC) [µM]	TGI (DMS 273 small cell lung) [µM]	TGI (COLO 205 colon) [µM]	TGI (DMS 114 small cell lung) [µM]	GI50 (ACHN renal) [µM]	GI50 (OVCAR-8 ovarian) [µM]	GI50 (A549 NSCLC) [µM]	GI50 (SF-539 CNS) [µM]	GI50 (UACC-257 melanoma) [µM]	GI50 (HOP-92 NSCLC) [µM]	GI50 (HOP-18 NSCLC) [µM]	GI50 (COLO 205 colon) [µM]
Cc1cc(Cl)ccc1N1C(=O)C(=O)C(c2nc3ccccc3o2)C(=O)C1=O	> 100	> 100	> 100	> 100	> 100	> 100	> 100	> 100	> 100	> 100	–	–	–	–	–	–	–	–
C=C[Si](C)(C)COC(=O)/C(C#N)=C/C=C/c1ccccc1	> 100	> 100	> 100	> 100	> 100	> 100	> 100	> 100	> 100	> 100	–	–	–	–	–	–	–	–
COC1C(O)CC(OC2CC(OC3CC(O[C@@H]4C(=O)c5c(cc6cc(OC7CC(OC8CC(O)C(O)C(C)O8)C(O)C(C)O7)c(C)c(O)c6c5O)C[C@H]4[C@H](OC)C(=O)[C@@H](O)[C@@H](C)O)OC(C)C3O)OC(C)C2O)OC1C (stereo not given in full)	> 100	> 100	> 100	0.0312	0.931	1.06	36	1.67	0.0921	4.5	–	–	–	–	–	–	–	–
CCOC(=O)N1CCc2cc(OC)c(OC)cc2/C1=C/c1ccc(OC)c(OC)c1	> 100	–	> 100	> 100	> 100	> 100	> 100	> 100	> 100	> 100	–	–	–	–	–	–	–	–
COc1ccc(C(=O)C/C(=N/NC(N)=S)C(=O)Nc2ccccc2)cc1	> 100	> 100	> 100	> 100	> 100	–	> 100	> 100	> 100	> 100	–	–	–	–	–	–	–	–
NC1=NCC(c2ccccn2)C1c1ccc(F)cc1 (stereo not given)	> 100	> 100	> 100	> 100	> 100	> 100	> 100	–	> 100	> 100	–	–	–	–	–	–	–	–
Cc1cccc(Cl)c1NC(=O)c1cccc([N+](=O)[O-])c1O	> 100	> 100	> 100	85.2	> 100	69.6	> 100	> 100	> 100	83.1	–	–	–	–	–	–	–	–
COc1ccc(C2N3CCCCC3[C@@H]3c4[nH]c5ccccc5c4CCN23)c(OC)c1 (stereo not given in full)	55.2	> 100	> 100	35.2	72.4	> 100	> 100	34.3	43.2	38.4	–	–	–	–	–	–	–	–
O=C([CH-]C(=O)c1ccccc1)c1ccccc1.[CH3-].[CH3-].[CH3-].[Sn+4]	> 100	53.8	> 100	> 100	60.8	67.3	> 100	–	35.8	–	21	8.25	17.1	21.7	22.2	27.8	39	17.8
Cc1cccc2cc3cccc(C(=O)NCCN(C)C)c3nc12	–	5.58	–	1.61	1.46	1.38	9.35	0.926	1.75	1.02	–	–	–	–	–	–	–	–
O=[N+]([O-])c1ccc2nc3ccscc-3c2c1	> 100	–	89.9	50.4	> 100	25.7	> 100	> 100	34.8	39.6	–	–	–	–	–	–	–	–

From PubChem BioAssay (NCI)
